Laboratory results published in US10434147B2, “Treatment type 2 diabetes mellitus patients” (Sanofi-Aventis Deutschland GmbH, priority 2015, dated 2019).
Marks after values point to notes of the source that are not given here.

Legend:
[1] = test system: Patients with Type 2 Diabetes Insufficiently Controlled with Insulin Glargine with or without Metformin; test: Fasting plasma glucose, 26-week study; format: in vivo, human
Excerpt: (§1) FIG. 6—Graphical study design. ^1 Insulin glargine should be injected subcutaneously once daily at dinner or breakfast time (according to patient's/investigators' preference). […] Meal used for insulin glulisine dosing should remain the same throughout the 26-week treatment period. ^4 Injection of insulin glulisine prior to breakfast, lunch and dinner.
(§2) Co-primary endpoints at 26 weeks were (1) non-inferiority (95% CI upper bound <0.4%) in HbA1c reduction with LIXI vs GLU-1 and (2) for LIXI vs GLU-3, either non-inferiority in HbA1c reduction (2a) OR superiority (one-sided α≤0.025) in body weight change (2b). FPG, PPG, IG dose, composite outcomes, AEs, and hypoglycemia were assessed.

[2] = test system: Patients with Type 2 Diabetes Insufficiently Controlled with Insulin Glargine with or without Metformin; set-up: species or system human; conditions: in vivo
Excerpt: Clinical symptoms that are considered to result from a hypoglycemic episode are, e.g., increased sweating, nervousness, asthenia/weakness, tremor, dizziness, increased appetite, palpitations, headache, sleep disorder, confusion, seizures, unconsciousness, coma.
as §2

[3] = test system: Patients with Type 2 Diabetes Insufficiently Controlled with Insulin Glargine with or without Metformin; test: Insulin dose (insulin glargine, insulin glulisine), 26-week study; format: in vivo, human
Excerpt: as §1, §2

[4] = test system: Patients with Type 2 Diabetes Insufficiently Controlled with Insulin Glargine with or without Metformin; test: Body weight, 26-week study; format: in vivo, human
Excerpt: as §1, §2

[5] = test system: Patients with Type 2 Diabetes Insufficiently Controlled with Insulin Glargine with or without Metformin; test: 2-h PPG post test meal, 26-week study; format: in vivo, human; conditions: subset of mITT treated before breakfast
Method: as §2

[6] = test system: Patients with Type 2 Diabetes Insufficiently Controlled with Insulin Glargine with or without Metformin; format: in vivo, human
[7] = test system: Patients with Type 2 Diabetes Insufficiently Controlled with Insulin Glargine with or without Metformin; test: HbA1c, randomized open-label active-controlled 3-arm 26-week study (GetGoal-Duo2); format: in vivo, human
Excerpt: as §1, §2

[8] = Baseline (before IMP), mITT population
[9] = Week 26 (LOCF), mITT population
[10] = Week 26 (LOCF), mITT, Example 2 table

Substance: Insulin Glulisine TID: insulin glulisine three times daily, added to insulin glargine ± metformin (comparator arm)
- Fasting plasma glucose change to Week 26, LS Mean difference (SE) of Lixisenatide vs. the labelled insulin glulisine arm ([1]; ANCOVA, mITT population): −0.17 (0.158) mmol/L
- Fasting plasma glucose, Change from baseline to Week 26 (LOCF), LS Mean (SE) ([1]; ANCOVA, mITT population): −0.06 (0.140) mmol/L
- FPG, BL (end run-in) mean ± SD ([1]; BL (end run-in), mITT): 120 ± 34 mg/dL
- Fasting plasma glucose, Baseline, Mean (SD) [1, 8]: 6.65 (1.89) mmol/L
- Fasting plasma glucose, Baseline, Median [1, 8]: 6.40 mmol/L
- FPG, Screening (start run-in) mean ± SD ([1]; Screening (start run-in), mITT): 171 ± 53 mg/dL
- FPG, Week 26 (LOCF) mean ± SD ([1]; Week 26 (LOCF), mITT): 121 ± 36 mg/dL
- Fasting plasma glucose, Week 26 (LOCF), Mean (SD) [1, 9]: 6.71 (2.02) mmol/L
- Fasting plasma glucose, Week 26 (LOCF), Median [1, 9]: 6.50 mmol/L
- FPG, LS mean treatment difference (lixisenatide vs the labelled arm) ([1]; Week 26, mITT): -3 mg/dL
- FPG, LS mean ± SE change from BL ([1]; Week 26, mITT): -1 ± 3 mg/dL
- Fasting plasma glucose, Change from baseline to Week 26 (LOCF), Mean (SD) ([1]; mITT population): 0.05 (2.47) mmol/L
- Fasting plasma glucose, Change from baseline to Week 26 (LOCF), Median ([1]; mITT population): -0.20 mmol/L
- Any symptomatic hypoglycemia: Number of events [2]: 600
- Any symptomatic hypoglycemia: Number of events per 100 patient years [2]: 410.4 per 100 patient years
- Any symptomatic hypoglycemia: Number of patients with events per 100 patient years [2]: 90.3 per 100 patient years
- Documented Symptomatic Hypoglycemia at Week 26, % pts [2]: 44.6 (p = 0.001) % pts
- Documented Symptomatic Hypoglycemia at Week 26, No. of events [2]: 595
- Documented Symptomatic Hypoglycemia at Week 26, No. of events/pt years [2]: 4.1 events/pt years
- Severe Hypoglycemia, no. of pts with events [2]: 0
- Insulin glargine dose change to Week 26, LS Mean difference (SE) of Lixisenatide vs. the labelled insulin glulisine arm ([3]; ANCOVA, mITT population): 3.83 (1.106) U
- Insulin glargine dose, Change from baseline to Week 26 (LOCF), LS Mean (SE) ([3]; ANCOVA, mITT population): −3.13 (0.982) U
- Insulin Glargine dose, BL (end run-in) mean ± SD ([3]; BL (end run-in), mITT): 65 ± 27 U/day
- Insulin glargine dose, Baseline, Mean (SD) [3, 8]: 65.05 (27.01) U
- Insulin glargine dose, Baseline, Median [3, 8]: 60.67 U
- Insulin Glargine dose, Week 26 (LOCF) mean ± SD ([3]; Week 26 (LOCF), mITT): 61 ± 29 U/day
- Insulin glargine dose, Week 26 (LOCF), Mean (SD) [3, 9]: 61.16 (29.33) U
- Insulin glargine dose, Week 26 (LOCF), Median [3, 9]: 57.00 U
- Insulin Glargine dose, LS mean + SE change from BL ([3]; Week 26, mITT): −3.1 ± 1.0 U/day
- Insulin Glargine dose, LS mean treatment difference (lixisenatide vs the labelled arm) ([3]; Week 26, mITT): 3.9 U/day
- Insulin glargine dose, Change from baseline to Week 26 (LOCF), Mean (SD) ([3]; mITT population): −3.89 (13.28) U
- Insulin glargine dose, Change from baseline to Week 26 (LOCF), Median ([3]; mITT population): −4.00 U
- Body weight, Change from baseline to Week 26 (LOCF), LS Mean (SE) ([4]; ANCOVA, mITT population): 1.37 (0.271) kg
- Body weight change to Week 26, LS Mean difference (SE) of Lixisenatide vs. the labelled insulin glulisine arm ([4]; ANCOVA, mITT population, p <.0001): −1.99 (0.305) kg
- Body Weight, BL mean ± SD ([4]; BL, mITT, Example 2 table): 90.0 ± 17.2 kg
- Body weight, Baseline, Mean (SD) [4, 8]: 90.00 (17.21) kg
- Body weight, Baseline, Median [4, 8]: 88.70 kg
- Body weight, Week 26 (LOCF), Mean (SD) [4, 9]: 91.29 (17.27) kg
- Body weight, Week 26 (LOCF), Median [4, 9]: 90.50 kg
- Body Weight, Week 26 (LOCF) mean ± SD [4, 10]: 91.3 ± 17.3 kg
- Body Weight, LS mean ± SE change from BL ([4]; Week 26, mITT, Example 2 table): 1.4 ± 0.3 kg
- Body Weight, LS mean treatment difference (lixisenatide vs the labelled arm) ([4]; Week 26, mITT, p < 0.0001, Example 2 table): -2.0 kg
- Body weight, Change from baseline to Week 26 (LOCF), Mean (SD) ([4]; mITT population): 1.29 (2.80) kg
- Body weight, Change from baseline to Week 26 (LOCF), Median ([4]; mITT population): 1.20 kg
- 2-h PPG post test meal, BL (end run-in) mean ± SD ([5]; BL): 262 ± 63 mg/dL
- 2-h PPG post test meal, Week 26 (LOCF) mean ± SD ([5]; Week 26 (LOCF)): 229 ± 69 mg/dL
- 2-h PPG post test meal, LS mean treatment difference (lixisenatide vs the labelled arm) ([5]; Week 26): -40 mg/dL
- 2-h PPG post test meal, LS mean ± SE change from BL ([5]; Week 26): -25 ± 11 mg/dL
- Reason for treatment discontinuation: Lack of efficacy ([6]; Randomized population, HbA1c above […] at Week 12 or later): 0 n (%)
- Reason for treatment discontinuation: Adverse event ([6]; human, in vivo): 5 (1.7%) n (%)
- HbA1c change to Week 26, LS Mean difference (SE) of Lixisenatide vs. the labelled insulin glulisine arm ([7]; ANCOVA, mITT population): 0.21 (0.059) %
- HbA1c, Change from baseline to Week 26 (LOCF), LS Mean (SE) ([7]; ANCOVA, mITT population): −0.84 (0.053) %
- HbA1c, BL (end run-in) mean ± SD ([7]; BL (end run-in), mITT): 7.8 ± 0.6%
- HbA1c, Baseline, Mean (SD) [7, 8]: 7.79 (0.60) %
- HbA1c, Baseline, Median [7, 8]: 7.70%
- HbA1c, Screening (start run-in) mean ± SD ([7]; Screening (start run-in), mITT): 8.5 ± 0.8%
- HbA1c, Week 26 (LOCF), Mean (SD) [7, 9]: 6.96 (0.73) %
- HbA1c, Week 26 (LOCF), Median [7, 9]: 7.00%
- HbA1c, Week 26 (LOCF) mean ± SD [7, 10]: 7.0 ± 0.7%
- HbA1c, LS mean treatment difference (lixisenatide vs the labelled arm), co-primary endpoint ([7]; Week 26, mITT, Example 2 table): 0.2^† %
- HbA1c, LS mean ± SE change from BL ([7]; Week 26, mITT, Example 2 table): −0.8 ± 0.1%
- HbA1c, Change from baseline to Week 26 (LOCF), Mean (SD) ([7]; mITT population): −0.82 (0.78) %
- HbA1c, Change from baseline to Week 26 (LOCF), Median ([7]; mITT population): −0.90%
